# Key:
# Assay type in all cases: cell-based
# MOLT-4 = assay: NCI60 five-dose screen; settings: Homo sapiens, MOLT-4
# RPMI-8226 = assay: NCI60 five-dose screen; settings: Homo sapiens, RPMI-8226
# NCI-H522 [1] = assay: NCI60 five-dose screen; settings: Homo sapiens, NCI-H522
# HCC-2998 = assay: NCI60 five-dose screen; settings: Homo sapiens, HCC 2998
# HCT-116 = assay: NCI60 five-dose screen; settings: Homo sapiens, HCT-116
# HCT-15 [2] = assay: NCI60 five-dose screen; settings: Homo sapiens, HCT-15
# KM12 = assay: NCI60 five-dose screen; settings: Homo sapiens, KM12
# SF-539 = assay: NCI60 five-dose screen; settings: Homo sapiens, SF-539
# LOX IMVI [3] = assay: NCI60 five-dose screen; settings: Homo sapiens
# MALME-3M = assay: NCI60 five-dose screen; settings: Homo sapiens, Malme-3M
# SK-MEL-28 = assay: NCI60 five-dose screen; settings: Homo sapiens, SK-MEL-28
# SK-MEL-5 [4] = assay: NCI60 five-dose screen; settings: Homo sapiens, SK-MEL-5
# UACC-257 [5] = assay: NCI60 five-dose screen; settings: Homo sapiens, UACC-257
# IGROV1 [6] = assay: NCI60 five-dose screen; settings: Homo sapiens, IGROV-1
# 786-0 = assay: NCI60 five-dose screen; settings: Homo sapiens, 786-0
# CAKI-1 [7] = assay: NCI60 five-dose screen; settings: Homo sapiens, CAKI-1
# RXF 393 = assay: NCI60 five-dose screen; settings: Homo sapiens, RXF 393
# MCF7 [8] = assay: NCI60 five-dose screen; settings: Homo sapiens, MCF7
# MDA-MB-468 = assay: NCI60 five-dose screen; settings: Homo sapiens, MDA-MB-468
# Leukemia panel = assay: NCI60 five-dose screen, panel mean; settings: Homo sapiens, read-out: GI50 Mean
# [9] = tested on: Non-small Cell Lung Cancer panel; assay: NCI60 five-dose screen, panel mean; settings: Homo sapiens, read-out: GI50 Mean
# Colon Cancer panel = assay: NCI60 five-dose screen, panel mean; settings: Homo sapiens, read-out: GI50 Mean
# Melanoma panel = assay: NCI60 five-dose screen, panel mean; settings: Homo sapiens, read-out: GI50 Mean
# Ovarian Cancer panel = assay: NCI60 five-dose screen, panel mean; settings: Homo sapiens, read-out: GI50 Mean
# Breast Cancer panel = assay: NCI60 five-dose screen, panel mean; settings: Homo sapiens, read-out: GI50 Mean
# CCRF-CEM = assay: NCI60 one-dose screen; settings: Homo sapiens, read-out: Growth percent
# A549/ATCC = assay: NCI60 one-dose screen; settings: Homo sapiens, A549, read-out: Growth percent
# NCI-H23 = assay: NCI60 one-dose screen; settings: Homo sapiens, NCI-H23, read-out: Growth percent
# NCI-H322M = assay: NCI60 one-dose screen; settings: Homo sapiens, read-out: Growth percent
# NCI-H460 = assay: NCI60 one-dose screen; settings: Homo sapiens, NCI-H460, read-out: Growth percent
# NCI-H522 [10] = assay: NCI60 one-dose screen; settings: Homo sapiens, NCI-H522, read-out: Growth percent
# HCT-15 [11] = assay: NCI60 one-dose screen; settings: Homo sapiens, HCT-15, read-out: Growth percent
# SNB-19 = assay: NCI60 one-dose screen; settings: Homo sapiens, SNB-19, read-out: Growth percent
# SNB-75 = assay: NCI60 one-dose screen; settings: Homo sapiens, SNB-75, read-out: Growth percent
# LOX IMVI [12] = assay: NCI60 one-dose screen; settings: Homo sapiens, read-out: Growth percent
# M14 = assay: NCI60 one-dose screen; settings: Homo sapiens, M14, read-out: Growth percent
# SK-MEL-5 [13] = assay: NCI60 one-dose screen; settings: Homo sapiens, SK-MEL-5, read-out: Growth percent
# UACC-257 [14] = assay: NCI60 one-dose screen; settings: Homo sapiens, UACC-257, read-out: Growth percent
# IGROV1 [15] = assay: NCI60 one-dose screen; settings: Homo sapiens, IGROV-1, read-out: Growth percent
# OVCAR-3 = assay: NCI60 one-dose screen; settings: Homo sapiens, OVCAR-3, read-out: Growth percent
# OVCAR-4 = assay: NCI60 one-dose screen; settings: Homo sapiens, OVCAR-4, read-out: Growth percent
# OVCAR-5 = assay: NCI60 one-dose screen; settings: Homo sapiens, OVCAR-5, read-out: Growth percent
# CAKI-1 [16] = assay: NCI60 one-dose screen; settings: Homo sapiens, CAKI-1, read-out: Growth percent
# TK-10 = assay: NCI60 one-dose screen; settings: Homo sapiens, TK-10, read-out: Growth percent
# UO-31 = assay: NCI60 one-dose screen; settings: Homo sapiens, UO-31, read-out: Growth percent
# MCF7 [17] = assay: NCI60 one-dose screen; settings: Homo sapiens, MCF7, read-out: Growth percent
# T-47D = assay: NCI60 one-dose screen; settings: Homo sapiens, T47D, read-out: Growth percent
smiles,measurement,setting,value
CC[C@]12C=CCN3CC[C@@]4(c5ccc(OC)cc5N(C)[C@H]4[C@@](O)(C(=O)OC)[C@@H]1OC(=O)CCCC[P+](c1ccc(C)cc1)(c1ccc(C)cc1)c1ccc(C)cc1)[C@@H]32 [10a],GI50,MOLT-4,0.611 µM
same,GI50,RPMI-8226,0.283 µM
same,GI50,NCI-H522 [1],0.306 µM
same,GI50,HCC-2998,0.52 µM
same,GI50,HCT-116,0.452 µM
same,GI50,HCT-15 [2],2.17 µM
same,GI50,KM12,0.596 µM
same,GI50,SF-539,1.22 µM
same,GI50,LOX IMVI [3],0.797 µM
same,GI50,MALME-3M,1.17 µM
same,GI50,SK-MEL-28,0.485 µM
same,GI50,SK-MEL-5 [4],1.57 µM
same,GI50,UACC-257 [5],0.817 µM
same,GI50,IGROV1 [6],0.479 µM
same,GI50,786-0,1.64 µM
same,GI50,CAKI-1 [7],7.46 µM
same,GI50,RXF 393,0.468 µM
same,GI50,MCF7 [8],0.325 µM
same,GI50,MDA-MB-468,0.264 µM
same,GI50,Leukemia panel,0.48 µM
same,GI50,[9],1.07 µM
same,GI50,Colon Cancer panel,0.72 µM
same,GI50,Melanoma panel,0.92 µM
same,GI50,Ovarian Cancer panel,2.54 µM
same,GI50,Breast Cancer panel,0.58 µM
same,activity at 10 µM,CCRF-CEM,-72.4%
same,activity at 10 µM,A549/ATCC,-92.2%
same,activity at 10 µM,NCI-H23,-92.4%
same,activity at 10 µM,NCI-H322M,-97.6%
same,activity at 10 µM,NCI-H460,-86.6%
same,activity at 10 µM,NCI-H522 [10],-82.7%
same,activity at 10 µM,HCT-15 [11],-90.1%
same,activity at 10 µM,SNB-19,-96.5%
same,activity at 10 µM,SNB-75,-87.6%
same,activity at 10 µM,LOX IMVI [12],-94.5%
same,activity at 10 µM,M14,-88.3%
same,activity at 10 µM,SK-MEL-5 [13],-98.5%
same,activity at 10 µM,UACC-257 [14],-95%
same,activity at 10 µM,IGROV1 [15],-91.8%
same,activity at 10 µM,OVCAR-3,-77.1%
same,activity at 10 µM,OVCAR-4,-68.9%
same,activity at 10 µM,OVCAR-5,-96%
same,activity at 10 µM,CAKI-1 [16],-95.2%
same,activity at 10 µM,TK-10,-91.2%
same,activity at 10 µM,UO-31,-96%
same,activity at 10 µM,MCF7 [17],-81.2%
same,activity at 10 µM,T-47D,-64.5%
CC[C@]12C=CCN3CC[C@@]4(c5ccc(OC)cc5N(C)[C@H]4[C@@](O)(C(=O)OC)[C@@H]1OC(=O)CCCC[P+](c1ccc(OC)cc1)(c1ccc(OC)cc1)c1ccc(OC)cc1)[C@@H]32 [10b],GI50,MOLT-4,1.18 µM
same,GI50,RPMI-8226,0.299 µM
same,GI50,NCI-H522 [1],0.341 µM
same,GI50,HCC-2998,0.617 µM
same,GI50,HCT-116,1.3 µM
same,GI50,HCT-15 [2],8.79 µM
same,GI50,KM12,0.675 µM
same,GI50,SF-539,1.52 µM
same,GI50,LOX IMVI [3],1.11 µM
same,GI50,MALME-3M,1.13 µM
same,GI50,SK-MEL-28,0.486 µM
same,GI50,SK-MEL-5 [4],1.6 µM
same,GI50,UACC-257 [5],0.792 µM
same,GI50,IGROV1 [6],0.548 µM
same,GI50,786-0,2.59 µM
same,GI50,CAKI-1 [7],15.2 µM
same,GI50,RXF 393,0.524 µM
same,GI50,MCF7 [8],0.105 µM
same,GI50,MDA-MB-468,0.264 µM
same,GI50,Leukemia panel,0.56 µM
same,GI50,[9],1.36 µM
same,GI50,Colon Cancer panel,1.88 µM
same,GI50,Melanoma panel,0.98 µM
same,GI50,Ovarian Cancer panel,4.11 µM
same,GI50,Breast Cancer panel,0.7 µM
same,activity at 10 µM,CCRF-CEM,-59.1%
same,activity at 10 µM,A549/ATCC,-83.7%
same,activity at 10 µM,NCI-H23,-90.7%
same,activity at 10 µM,NCI-H322M,-89.7%
same,activity at 10 µM,NCI-H460,-87%
same,activity at 10 µM,NCI-H522 [10],-81.9%
same,activity at 10 µM,HCT-15 [11],-5.69%
same,activity at 10 µM,SNB-19,-95.7%
same,activity at 10 µM,SNB-75,-95.4%
same,activity at 10 µM,LOX IMVI [12],-96.4%
same,activity at 10 µM,M14,-89.8%
same,activity at 10 µM,SK-MEL-5 [13],-97%
same,activity at 10 µM,UACC-257 [14],-93.4%
same,activity at 10 µM,IGROV1 [15],-92%
same,activity at 10 µM,OVCAR-3,-71.8%
same,activity at 10 µM,OVCAR-4,-37.7%
same,activity at 10 µM,OVCAR-5,-98.6%
same,activity at 10 µM,CAKI-1 [16],-78.5%
same,activity at 10 µM,TK-10,-88.2%
same,activity at 10 µM,UO-31,15.5%
same,activity at 10 µM,MCF7 [17],-82.6%
same,activity at 10 µM,T-47D,-46.6%
